One may read the IC50 as the concentration at which inhibition is half-maximal. High values mean weaker potency, low ones greater potency.

In ChEMBL document CHEMBL5465560, “Selectivity Literature for EUbOPEN Chemogenomic Library” (2024) one finds % of control, % of inhibition and IC50 data, which are given here for 11 compounds.

Assay [1] deals with T1, Testis-specific serine/threonine-protein kinase 1 (Homo sapiens) (UniProt Q9BXA7).
T1 sequence (whole entry): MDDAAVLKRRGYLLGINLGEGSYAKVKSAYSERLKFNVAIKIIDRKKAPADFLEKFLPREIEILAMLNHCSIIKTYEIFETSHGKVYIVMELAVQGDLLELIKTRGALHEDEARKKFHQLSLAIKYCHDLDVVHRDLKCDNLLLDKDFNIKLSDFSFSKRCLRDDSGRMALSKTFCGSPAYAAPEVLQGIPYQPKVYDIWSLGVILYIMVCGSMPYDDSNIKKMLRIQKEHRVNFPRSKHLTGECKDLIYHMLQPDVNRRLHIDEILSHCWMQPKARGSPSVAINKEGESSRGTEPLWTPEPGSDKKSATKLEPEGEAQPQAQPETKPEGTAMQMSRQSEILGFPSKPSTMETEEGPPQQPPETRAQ
The following applies: at 10 µM.

Assay [2] has as its target Casein kinase I isoform epsilon (Homo sapiens, UniProt P49674). Put plainly: Selectivity interaction (KinomeScan (DiscoverX)) EUB0001619a CSNK1E. Particulars: at 1 µM.
Assay [3] deals with Serine/threonine-protein kinase N2 (Homo sapiens, UniProt Q16513). Put plainly: Selectivity interaction (KinomeScan (DiscoverX)) EUB0001619a PKN2. Particulars: at 1 µM.
Assay [4] deals with T2, Uncharacterized serine/threonine-protein kinase SBK3 (Homo sapiens) (UniProt P0C264).
T2 sequence (whole entry): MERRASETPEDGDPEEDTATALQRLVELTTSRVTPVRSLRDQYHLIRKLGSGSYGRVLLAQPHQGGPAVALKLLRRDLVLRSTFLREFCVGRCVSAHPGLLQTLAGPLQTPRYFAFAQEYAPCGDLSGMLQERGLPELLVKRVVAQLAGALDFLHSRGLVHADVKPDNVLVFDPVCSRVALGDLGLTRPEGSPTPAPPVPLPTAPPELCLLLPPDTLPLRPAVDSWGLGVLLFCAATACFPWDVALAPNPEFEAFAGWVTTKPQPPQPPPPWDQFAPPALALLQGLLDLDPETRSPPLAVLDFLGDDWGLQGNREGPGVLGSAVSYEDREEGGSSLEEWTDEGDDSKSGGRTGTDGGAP
Put plainly: Selectivity interaction (KinomeScan (DiscoverX)) EUB0000695a SBK3. Particulars: at 100 nM.

The target in assay [5] is T3, Mitogen-activated protein kinase 12 (Homo sapiens) (UniProt P53778).
T3 sequence (whole entry): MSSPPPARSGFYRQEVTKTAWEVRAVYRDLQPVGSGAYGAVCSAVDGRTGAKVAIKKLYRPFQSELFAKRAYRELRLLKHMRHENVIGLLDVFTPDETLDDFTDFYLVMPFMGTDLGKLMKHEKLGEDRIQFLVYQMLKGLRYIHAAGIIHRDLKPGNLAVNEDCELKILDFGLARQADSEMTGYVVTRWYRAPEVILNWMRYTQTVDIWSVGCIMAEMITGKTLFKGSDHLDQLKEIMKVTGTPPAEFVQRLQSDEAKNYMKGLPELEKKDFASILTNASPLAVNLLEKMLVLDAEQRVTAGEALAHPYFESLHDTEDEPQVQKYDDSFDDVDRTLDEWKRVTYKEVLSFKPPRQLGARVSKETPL
As to the kind of experiment: Selectivity interaction (KinomeScan (DiscoverX)) EUB0000666a MAPK12. The following applies: at 10 µM.

Assay [6] deals with Serine/threonine-protein kinase MARK2 (Homo sapiens) (UniProt Q7KZI7). As to the kind of experiment: Selectivity interaction (KinomeScan (DiscoverX)) EUB0000666a MARK2. Particulars: at 10 µM.
The target in assay [7] is T1, Testis-specific serine/threonine-protein kinase 1 (Homo sapiens). As to the kind of experiment: Selectivity interaction (KinomeScan (DiscoverX)) EUB0000607a TSSK1A. Particulars: at 10 µM.
Assay [8] addresses Ephrin type-A receptor 2 (Homo sapiens) (UniProt P29317). As to the kind of experiment: Selectivity interaction (KinomeScan (DiscoverX)) EUB0000607a EPHA2. Particulars: at 10 µM.
For assay [9], the target named is Tyrosine-protein kinase Fer (Homo sapiens) (UniProt P16591). The following applies: at 10 µM.
Sequence of Tyrosine-protein kinase Fer (Homo sapiens) (P16591 whole entry, looked up): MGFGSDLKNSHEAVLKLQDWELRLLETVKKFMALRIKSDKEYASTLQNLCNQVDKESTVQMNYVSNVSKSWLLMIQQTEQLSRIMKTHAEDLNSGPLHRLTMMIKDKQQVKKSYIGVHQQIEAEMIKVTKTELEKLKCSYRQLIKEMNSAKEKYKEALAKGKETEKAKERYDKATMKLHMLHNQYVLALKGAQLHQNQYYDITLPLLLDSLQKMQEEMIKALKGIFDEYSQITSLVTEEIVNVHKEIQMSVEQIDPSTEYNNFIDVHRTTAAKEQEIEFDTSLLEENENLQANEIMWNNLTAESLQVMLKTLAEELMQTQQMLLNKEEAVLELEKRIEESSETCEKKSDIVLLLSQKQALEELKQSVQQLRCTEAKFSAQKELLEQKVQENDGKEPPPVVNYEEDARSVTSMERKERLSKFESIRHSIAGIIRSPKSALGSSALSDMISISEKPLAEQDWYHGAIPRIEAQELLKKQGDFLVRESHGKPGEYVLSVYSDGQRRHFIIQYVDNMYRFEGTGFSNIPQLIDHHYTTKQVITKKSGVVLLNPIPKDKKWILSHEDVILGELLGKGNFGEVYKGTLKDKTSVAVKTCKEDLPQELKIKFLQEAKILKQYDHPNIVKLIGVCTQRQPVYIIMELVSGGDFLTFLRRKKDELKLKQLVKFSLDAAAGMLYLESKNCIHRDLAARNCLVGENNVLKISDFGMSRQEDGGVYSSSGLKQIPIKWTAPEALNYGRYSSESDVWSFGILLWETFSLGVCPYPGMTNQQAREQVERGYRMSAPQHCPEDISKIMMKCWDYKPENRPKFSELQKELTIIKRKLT
Assay [10] concerns the target Serine/threonine-protein kinase PAK 2 (Homo sapiens) (UniProt Q13177). Particulars: at 10 µM.
Assay [11] concerns Epidermal growth factor receptor (Homo sapiens), P00533 [UNDEFINED MUTATION]. The following applies: at 10 µM.
Assay [12] deals with T4, Tyrosine-protein kinase JAK1 (Homo sapiens, UniProt P23458). As to the kind of experiment: Selectivity interaction (ActivX KiNativ screen (kinase selectivity in THP-1 cell lysates)) EUB0000639a JAK1. It counts as subcellular. Particulars: lysate, at 0.01 µM.
T4 sequence (P23458 whole entry): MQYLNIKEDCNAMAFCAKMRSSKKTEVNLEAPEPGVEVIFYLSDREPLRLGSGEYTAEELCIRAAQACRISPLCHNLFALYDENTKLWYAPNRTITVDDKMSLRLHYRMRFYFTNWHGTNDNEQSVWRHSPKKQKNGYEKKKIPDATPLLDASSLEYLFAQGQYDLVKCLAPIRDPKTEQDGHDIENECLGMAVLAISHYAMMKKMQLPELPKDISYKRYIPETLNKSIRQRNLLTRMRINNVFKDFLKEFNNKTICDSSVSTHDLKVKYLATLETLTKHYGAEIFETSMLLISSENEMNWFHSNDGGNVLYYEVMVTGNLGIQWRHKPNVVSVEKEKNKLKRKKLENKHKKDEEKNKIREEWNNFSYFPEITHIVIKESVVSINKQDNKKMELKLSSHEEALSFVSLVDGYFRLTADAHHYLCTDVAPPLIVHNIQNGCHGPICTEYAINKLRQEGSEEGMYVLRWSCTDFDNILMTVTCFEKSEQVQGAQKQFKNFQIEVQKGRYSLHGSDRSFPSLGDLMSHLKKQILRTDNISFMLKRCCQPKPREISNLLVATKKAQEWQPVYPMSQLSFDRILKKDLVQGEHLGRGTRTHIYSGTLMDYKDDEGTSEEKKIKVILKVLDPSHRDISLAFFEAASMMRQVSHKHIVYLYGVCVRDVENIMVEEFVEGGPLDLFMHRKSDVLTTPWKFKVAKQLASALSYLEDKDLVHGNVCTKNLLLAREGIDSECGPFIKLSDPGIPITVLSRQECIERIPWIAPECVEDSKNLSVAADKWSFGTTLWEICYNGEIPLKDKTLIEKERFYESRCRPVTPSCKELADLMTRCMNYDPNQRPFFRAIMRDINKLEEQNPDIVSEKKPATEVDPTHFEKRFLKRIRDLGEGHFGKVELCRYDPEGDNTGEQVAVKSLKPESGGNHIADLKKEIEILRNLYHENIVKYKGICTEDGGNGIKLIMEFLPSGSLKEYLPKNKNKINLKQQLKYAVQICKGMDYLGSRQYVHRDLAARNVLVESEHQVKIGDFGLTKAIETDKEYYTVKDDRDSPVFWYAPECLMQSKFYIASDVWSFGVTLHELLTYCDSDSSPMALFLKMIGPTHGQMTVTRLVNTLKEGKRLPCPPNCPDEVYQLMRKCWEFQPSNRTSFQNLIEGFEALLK
In assay [13] the target is Calcium/calmodulin-dependent protein kinase type II subunit alpha (Homo sapiens, UniProt Q9UQM7). As to the kind of experiment: Selectivity interaction (KinomeScan (DiscoverX)) EUB0000045b CAMK2A.
Sequence of Calcium/calmodulin-dependent protein kinase type II subunit alpha (Q9UQM7 whole entry): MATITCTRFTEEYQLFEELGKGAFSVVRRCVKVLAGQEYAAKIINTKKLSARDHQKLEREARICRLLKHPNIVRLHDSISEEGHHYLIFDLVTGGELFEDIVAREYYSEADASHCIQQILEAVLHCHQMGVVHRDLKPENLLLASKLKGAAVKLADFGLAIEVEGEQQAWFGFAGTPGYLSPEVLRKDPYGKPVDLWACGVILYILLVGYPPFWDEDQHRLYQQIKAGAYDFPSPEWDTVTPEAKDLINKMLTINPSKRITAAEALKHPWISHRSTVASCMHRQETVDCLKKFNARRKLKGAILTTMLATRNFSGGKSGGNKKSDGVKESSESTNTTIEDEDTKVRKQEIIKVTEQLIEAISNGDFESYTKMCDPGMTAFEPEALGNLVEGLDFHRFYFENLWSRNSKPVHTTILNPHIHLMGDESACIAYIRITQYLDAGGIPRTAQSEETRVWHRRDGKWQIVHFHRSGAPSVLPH
Assay [14] deals with T5, MAP/microtubule affinity-regulating kinase 4 (Homo sapiens) (UniProt Q96L34).
T5 sequence (whole entry): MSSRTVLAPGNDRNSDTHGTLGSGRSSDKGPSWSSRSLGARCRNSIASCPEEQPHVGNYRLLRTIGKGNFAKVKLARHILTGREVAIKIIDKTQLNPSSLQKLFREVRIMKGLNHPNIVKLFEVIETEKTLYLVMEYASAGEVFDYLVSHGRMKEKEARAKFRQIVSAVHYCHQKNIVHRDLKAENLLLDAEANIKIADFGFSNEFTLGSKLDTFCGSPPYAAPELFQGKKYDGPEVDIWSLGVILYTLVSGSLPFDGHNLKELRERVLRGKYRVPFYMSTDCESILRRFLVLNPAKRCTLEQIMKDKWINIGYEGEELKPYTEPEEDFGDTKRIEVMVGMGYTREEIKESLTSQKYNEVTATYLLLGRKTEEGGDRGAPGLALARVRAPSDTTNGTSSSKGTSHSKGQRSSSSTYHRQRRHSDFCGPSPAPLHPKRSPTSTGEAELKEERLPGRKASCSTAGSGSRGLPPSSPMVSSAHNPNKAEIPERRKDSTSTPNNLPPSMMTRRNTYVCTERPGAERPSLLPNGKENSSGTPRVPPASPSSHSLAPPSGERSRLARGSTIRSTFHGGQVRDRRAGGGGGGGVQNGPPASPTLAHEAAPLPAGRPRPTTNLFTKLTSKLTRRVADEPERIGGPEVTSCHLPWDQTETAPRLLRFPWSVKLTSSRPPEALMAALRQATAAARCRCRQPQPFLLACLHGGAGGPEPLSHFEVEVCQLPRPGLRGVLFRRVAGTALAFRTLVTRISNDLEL
As to the kind of experiment: Selectivity interaction (KinomeScan (DiscoverX)) EUB0000045b MARK4.

Assay [15] deals with Protein kinase C alpha type (Homo sapiens, UniProt P17252). As to the kind of experiment: Selectivity interaction (Kinase panel (literature)) EUB0001199aCl PRKCA. The following applies: at 1 µM.
The target in assay [16] is Myosin light chain kinase, smooth muscle (Homo sapiens, UniProt Q15746). As to the kind of experiment: Selectivity interaction (Kinase panel (Invitrogen, enzymatic assay)) EUB0000162b MYLK.
Sequence of Myosin light chain kinase, smooth muscle (Q15746 whole entry): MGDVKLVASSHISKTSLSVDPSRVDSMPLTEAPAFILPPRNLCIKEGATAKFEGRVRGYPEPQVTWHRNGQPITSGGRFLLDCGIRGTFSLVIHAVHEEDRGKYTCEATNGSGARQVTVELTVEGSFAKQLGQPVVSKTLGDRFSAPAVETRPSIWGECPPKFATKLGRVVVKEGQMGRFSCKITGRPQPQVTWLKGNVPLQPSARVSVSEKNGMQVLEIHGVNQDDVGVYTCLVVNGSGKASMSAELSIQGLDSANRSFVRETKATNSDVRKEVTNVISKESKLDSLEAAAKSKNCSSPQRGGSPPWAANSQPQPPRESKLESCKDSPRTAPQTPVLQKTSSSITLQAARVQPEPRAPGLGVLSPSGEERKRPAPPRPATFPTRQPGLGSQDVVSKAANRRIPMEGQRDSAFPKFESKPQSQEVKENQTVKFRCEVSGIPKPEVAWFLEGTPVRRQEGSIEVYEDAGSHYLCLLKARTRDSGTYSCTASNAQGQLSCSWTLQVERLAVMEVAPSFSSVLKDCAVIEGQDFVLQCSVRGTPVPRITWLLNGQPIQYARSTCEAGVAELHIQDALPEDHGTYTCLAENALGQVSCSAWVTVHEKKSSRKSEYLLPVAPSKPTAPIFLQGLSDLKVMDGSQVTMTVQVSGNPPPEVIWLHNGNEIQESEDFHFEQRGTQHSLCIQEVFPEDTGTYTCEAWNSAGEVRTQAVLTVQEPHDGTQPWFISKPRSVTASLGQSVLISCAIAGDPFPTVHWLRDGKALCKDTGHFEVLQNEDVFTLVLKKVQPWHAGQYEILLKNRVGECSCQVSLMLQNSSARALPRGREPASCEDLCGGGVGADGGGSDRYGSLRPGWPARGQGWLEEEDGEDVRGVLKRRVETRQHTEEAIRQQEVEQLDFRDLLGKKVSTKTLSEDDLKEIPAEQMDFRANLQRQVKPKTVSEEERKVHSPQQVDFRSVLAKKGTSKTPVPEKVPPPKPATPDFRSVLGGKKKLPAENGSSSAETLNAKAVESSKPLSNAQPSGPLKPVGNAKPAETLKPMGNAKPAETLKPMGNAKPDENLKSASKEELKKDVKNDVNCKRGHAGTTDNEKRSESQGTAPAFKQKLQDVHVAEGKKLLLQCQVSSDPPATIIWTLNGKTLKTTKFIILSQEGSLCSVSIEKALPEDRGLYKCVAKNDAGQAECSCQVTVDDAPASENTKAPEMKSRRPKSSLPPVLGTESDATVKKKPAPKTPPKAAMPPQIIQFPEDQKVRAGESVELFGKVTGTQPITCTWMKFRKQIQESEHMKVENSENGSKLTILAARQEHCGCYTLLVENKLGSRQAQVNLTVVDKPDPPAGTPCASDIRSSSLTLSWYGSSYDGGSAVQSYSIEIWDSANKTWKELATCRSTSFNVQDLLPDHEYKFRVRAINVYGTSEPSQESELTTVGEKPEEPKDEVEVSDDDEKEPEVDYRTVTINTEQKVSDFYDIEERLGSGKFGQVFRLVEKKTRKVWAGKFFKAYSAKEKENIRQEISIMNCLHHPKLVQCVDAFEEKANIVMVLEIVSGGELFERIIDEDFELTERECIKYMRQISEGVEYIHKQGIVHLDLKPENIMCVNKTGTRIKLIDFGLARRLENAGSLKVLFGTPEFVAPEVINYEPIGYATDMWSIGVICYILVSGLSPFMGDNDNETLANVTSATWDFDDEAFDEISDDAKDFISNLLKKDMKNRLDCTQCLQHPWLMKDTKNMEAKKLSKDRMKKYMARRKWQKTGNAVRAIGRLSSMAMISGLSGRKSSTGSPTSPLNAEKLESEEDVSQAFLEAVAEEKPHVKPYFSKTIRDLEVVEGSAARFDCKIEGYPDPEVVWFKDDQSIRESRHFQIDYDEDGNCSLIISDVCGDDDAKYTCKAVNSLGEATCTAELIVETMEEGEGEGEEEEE
In assay [17] the target is T4, Tyrosine-protein kinase JAK1. As to the kind of experiment: Selectivity interaction (KinomeScan (DiscoverX)) EUB0000655a JAK1. Particulars: at 10 µM.

Sequence of Serine/threonine-protein kinase PAK 2 (Homo sapiens) (Q13177 whole entry): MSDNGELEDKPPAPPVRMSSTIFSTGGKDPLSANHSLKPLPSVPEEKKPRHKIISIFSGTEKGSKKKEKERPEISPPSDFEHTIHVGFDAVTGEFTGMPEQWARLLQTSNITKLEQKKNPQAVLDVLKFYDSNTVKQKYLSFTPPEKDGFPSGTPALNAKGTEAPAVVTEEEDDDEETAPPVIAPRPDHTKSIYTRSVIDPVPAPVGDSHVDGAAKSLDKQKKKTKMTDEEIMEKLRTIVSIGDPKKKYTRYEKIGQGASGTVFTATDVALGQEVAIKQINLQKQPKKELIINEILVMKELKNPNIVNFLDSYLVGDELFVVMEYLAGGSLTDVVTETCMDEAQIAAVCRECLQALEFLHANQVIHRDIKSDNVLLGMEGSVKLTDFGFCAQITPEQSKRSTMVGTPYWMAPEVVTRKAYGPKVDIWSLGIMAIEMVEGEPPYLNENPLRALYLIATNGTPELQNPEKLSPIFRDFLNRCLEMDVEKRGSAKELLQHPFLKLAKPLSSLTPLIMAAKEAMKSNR

In assay [1], `COCC(=O)NC/C=C/c1ccc2ncnc(Nc3ccc(Oc4ccc(C)nc4)c(C)c3)c2c1` [CP-724714] came in with a % of control of 100%.

In the case of `N#Cc1cccc(-c2c[nH]c3ncnc(N4CCOCC4)c23)c1`, the % of control in [2] was found to be 75%; in [3] it was 35%.

Take `Cc1cc(F)c(C(=O)Nc2cccc(-c3nncn3C(C)C)n2)cc1-n1cnc(C2CC2)c1`: in assay [4], the % of control was 85%.

For the compound `O=C(NOC[C@H](O)CO)c1ccc(F)c(F)c1Nc1ccc(I)cc1F`, the % of control in [5] and in assay [6] was 100% each time.

Turning to `CNC(=O)Nc1ccc(-c2nc(N3CC4CCC(C3)O4)c3cnn(C4CCC5(CC4)OCCO5)c3n2)cc1`, the % of control in assay [7] was 100%; in [8] it was 81%.

For the compound `Cc1cc([C@@H](C)Nc2ccccc2C(=O)O)c2nc(N3CCOCC3)cc(=O)n2c1` [AZD-6482], the % of control in assay [9], in [10] and in assay [11] was 100% in each case.

Regarding `CC[C@@H]1[C@H](F)C(=O)N[C@@H]1COc1nccc2cc(C(N)=O)c(OC)cc12` [ZIMLOVISERTIB], in assay [12], the % of inhibition was -1.9%.

Take `C=CC(=O)Nc1cc(-n2c(=O)ccc3cnc4ccc(-c5ccc(NS(C)(=O)=O)cc5)cc4c32)ccc1C`: the % of control amounted to 98% in [13] (at 1 µM), 69% in [13] (at 10 µM), 80% in assay [14] (at 1 µM) and 76% in [14] (at 10 µM).

In the case of `CN1Cc2nccc(-c3cn(C)nc3-c3ccc(F)cc3)c2C1=O`, the % of inhibition in assay [15] was -1%.

Turning to `CN(C)C(=O)Cn1cc(-c2ccc(-c3cncc4ccccc34)cc2)cn1`, in assay [16], half-maximal inhibition (IC50) was put at 531 nM.

The compound `CN(C)CCOc1ccc(-c2nc(-c3ccncc3)c(-c3ccc4c(c3)CC/C4=N\O)[nH]2)cc1` had a % of control in [17] of 0.5%.
